Patent US12281122B1, “PI3K inhibitors” (Cogent Biosciences, Inc., priority 2023, dated 2025)

Tests used:
[1] = tested on: T47D (PI3Kα-H1047R) cell line; assay: HTRF phospho-AKT(S473) cell assay in T47D cells; type: cell-based, human
In short: (§1)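 HTRF read-out of phospho-AKT(S473) in lysates gave IC50 values after 2 h compound exposure at 37° C. Dose series was 12 points at 1:3, topping at 5 μM for T47D and 10 μM for SKBR3. Only SKBR3 received 70 ng/ml PDGF-BB during the last 15 minutes.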

[2] = tested on: SKBR3 (PI3Kα-Wild Type) cell line; assay: HTRF phospho-AKT(S473) cell assay in SKBR3 cells; type: cell-based, human
In short: as §1

[3] = Homo sapiens; T47D (PI3Kα-H1047R) cells, HTRF phospho-AKT(S473), 2 hours compound incubation
[4] = Homo sapiens, SK-BR-3; SKBR3 (PI3Kα-Wild Type) cells, HTRF phospho-AKT(S473), 2 hours compound incubation, PDGF-BB stimulated
[5] = Homo sapiens; HTRF phospho-AKT(S473), T47D (PI3Kα-H1047R) cells, 2 hours compound incubation
[6] = Homo sapiens, SK-BR-3; HTRF phospho-AKT(S473), SKBR3 (PI3Kα-Wild Type) cells, 2 hours compound incubation, PDGF-BB stimulated

| SMILES | IC50 [1, 3] | IC50 [2, 4] | IC50 [1, 5] | IC50 [2, 6] |
| --- | --- | --- | --- | --- |
| COc1cnc([C@H]2[C@@H]3CN(c4nc5c([C@@H](C)Nc6ccc(Cl)nc6C(=O)NS(C)(=O)=O)cc(C)cc5c(=O)n4C)C[C@@H]32)cn1 [Compound 641, 6-chloro-3-(((R)-1-(2-((1R,5S,6R)-6-(5-methoxypyrazin-2-yl)-3-azabicyclo[3.1.0]hexan-3-yl)-3,6-dimethyl-4-oxo-3,4-dihydroquinazolin-8-yl)ethyl)amino)-N-(methylsulfonyl) picolinamide] | – | – | 250 to 500 nM | ≥ 5000 nM |
| Cc1cc([C@@H](C)Nc2ccc(Cl)nc2C(=O)NS(C)(=O)=O)c2nc(-c3ccc(OC4CCN(CC(F)F)CC4)nc3)n(C)c(=O)c2c1 [Compound 815, (R)-6-chloro-3-((1-(2-(6-((1-(2,2-difluoroethyl)piperidin-4-yl)oxy)pyridin-3-yl)-3,6-dimethyl-4-oxo-3,4-dihydroquinazolin-8-yl)ethyl)amino)-N-(methylsulfonyl) picolinamide] | – | – | 250 to 500 nM | ≥ 5000 nM |
| COc1ncc(N2CCN(c3nc4c([C@@H](C)Nc5ccc(Cl)nc5C(=O)NS(C)(=O)=O)cc(C)cc4c(=O)n3C)CC2)cn1 [Compound 555, (R)-6-chloro-3-((1-(2-(4-(2-methoxypyrimidin-5-yl)piperazin-1-yl)-3,6-dimethyl-4-oxo-3,4-dihydroquinazolin-8-yl)ethyl)amino)-N-(methylsulfonyl) picolinamide] | – | – | < 250 nM | 1000 to 5000 nM |
| CO[C@H]1CC[C@@H](n2ncc(-c3nc4c([C@@H](C)Nc5ccc(Cl)nc5C(=O)NS(C)(=O)=O)cc(C)cc4c(=O)n3C)c2C)CC1 (relative stereo) [Compound 380, 6-chloro-3-(((R)-1-(2-(1-((1S*,4S*)-4-methoxycyclohexyl)-5-methyl-1H-pyrazol-4-yl)-3,6-dimethyl-4-oxo-3,4-dihydroquinazolin-8-yl)ethyl)amino)-N-(methylsulfonyl) picolinamide] | < 250 nM | ≥ 5000 nM | – | – |
| Cc1cc([C@@H](C)Nc2ccc(Cl)nc2C(=O)NS(C)(=O)=O)c2nc(N3CCC(c4nc(C(F)(F)F)n(C)n4)CC3)n(C)c(=O)c2c1 [Compound 458, (R)-6-chloro-3-((1-(3,6-dimethyl-2-(4-(1-methyl-5-(trifluoromethyl)-1H-1,2,4-triazol-3-yl)piperidin-1-yl)-4-oxo-3,4-dihydroquinazolin-8-yl)ethyl)amino)-N-(methylsulfonyl) picolinamide] | – | – | 250 to 500 nM | ≥ 5000 nM |
| Cc1cc([C@@H](C)Nc2ccc(Cl)nc2C(=O)NS(C)(=O)=O)c2nc(N3CCc4c(cnn4C4COC4)C3)n(C)c(=O)c2c1 [Compound 335, (R)-6-chloro-3-((1-(3,6-dimethyl-2-(1-(oxetan-3-yl)-1,4,6,7-tetrahydro-5H-pyrazolo[4,3-c]pyridin-5-yl)-4-oxo-3,4-dihydroquinazolin-8-yl)ethyl)amino)-N-(methylsulfonyl) picolinamide] | < 250 nM | 1000 to 5000 nM | – | – |
| Cc1cc([C@@H](C)Nc2ccc(Cl)nc2C(=O)NS(C)(=O)=O)c2nc(-c3ccc(-c4cn(C)cn4)cc3)n(C)c(=O)c2c1 [Compound 802, (R)-6-chloro-3-((1-(3,6-dimethyl-2-(4-(1-methyl-1H-imidazol-4-yl)phenyl)-4-oxo-3,4-dihydroquinazolin-8-yl)ethyl)amino)-N-(methylsulfonyl) picolinamide] | – | – | < 250 nM | 1000 to 5000 nM |
| Cc1cc([C@@H](C)Nc2ccc(Cl)nc2C(=O)NS(C)(=O)=O)c2nc(-c3ccc4nn(C(F)F)cc4c3)n(C)c(=O)c2c1 [Compound 836, (R)-6-chloro-3-((1-(2-(2-(difluoromethyl)-2H-indazol-5-yl)-3,6-dimethyl-4-oxo-3,4-dihydroquinazolin-8-yl)ethyl)amino)-N-(methylsulfonyl) picolinamide] | – | – | < 250 nM | 1000 to 5000 nM |

Further lines, results first:

| IC50 [1, 3] | IC50 [2, 4] | IC50 [1, 5] | IC50 [2, 6] | SMILES |
| --- | --- | --- | --- | --- |
| < 250 nM | 1000 to 5000 nM | – | – | Cc1cc([C@@H](C)Nc2ccc(Cl)nc2C(=O)NS(C)(=O)=O)c2nc(N3CCC(c4ncc(C#N)cc4C)CC3)n(C)c(=O)c2c1 [Compound 266, (R)-6-chloro-3-((1-(2-(4-(5-cyano-3-methylpyridin-2-yl)piperidin-1-yl)-3,6-dimethyl-4-oxo-3,4-dihydroquinazolin-8-yl)ethyl)amino)-N-(methylsulfonyl) picolinamide] |
| – | – | < 250 nM | 1000 to 5000 nM | Cc1cc([C@@H](C)Nc2ccc(Cl)nc2C(=O)NS(C)(=O)=O)c2nc(N3C[C@@H]4[C@H](C3)[C@H]4c3ccc(C)nn3)n(C)c(=O)c2c1 [Compound 441, 6-chloro-3-(((R)-1-(3,6-dimethyl-2-((1R,5S,6R)-6-(6-methylpyridazin-3-yl)-3-azabicyclo [3.1.0]hexan-3-yl)-4-oxo-3,4-dihydroquinazolin-8-yl)ethyl)amino)-N-(methylsulfonyl) picolinamide] |
| – | – | < 250 nM | 1000 to 5000 nM | Cc1cc([C@@H](C)Nc2ccc(Cl)nc2C(=O)NS(C)(=O)=O)c2nc(N3CCC(c4cc(C)on4)CC3)n(C)c(=O)c2c1 [Compound 571, (R)-6-chloro-3-((1-(3,6-dimethyl-2-(4-(5-methylisoxazol-3-yl)piperidin-1-yl)-4-oxo-3,4-dihydroquinazolin-8-yl)ethyl)amino)-N-(methylsulfonyl) picolinamide] |
| – | – | 250 to 500 nM | ≥ 5000 nM | Cc1cc([C@@H](C)Nc2ccc(Cl)nc2C(=O)NS(C)(=O)=O)c2nc(N3CCC(n4ccccc4=O)CC3)n(C)c(=O)c2c1 [Compound 677, (R)-6-chloro-3-((1-(3,6-dimethyl-4-oxo-2-(4-(2-oxopyridin-1(2H)-yl)piperidin-1-yl)-3,4-dihydroquinazolin-8-yl)ethyl)amino)-N-(methylsulfonyl) picolinamide] |
| – | – | < 250 nM | 1000 to 5000 nM | Cc1cc([C@@H](C)Nc2ccc(Cl)nc2C(=O)NS(C)(=O)=O)c2nc(N3CCC(c4cc(C)[nH]n4)CC3)n(C)c(=O)c2c1 [Compound 715, (R)-6-chloro-3-((1-(3,6-dimethyl-2-(4-(5-methyl-1H-pyrazol-3-yl)piperidin-1-yl)-4-oxo-3,4-dihydroquinazolin-8-yl)ethyl)amino)-N-(methylsulfonyl) picolinamide] |
| < 250 nM | 1000 to 5000 nM | – | – | Cc1cc([C@@H](C)Nc2ccc(Cl)nc2C(=O)NS(C)(=O)=O)c2nc(N3CCN(c4ccc(C#N)cn4)[C@H](C)C3)n(C)c(=O)c2c1 [Compound 200, 6-chloro-3-(((R)-1-(2-((R)-4-(5-cyanopyridin-2-yl)-3-methylpiperazin-1-yl)-3,6-dimethyl-4-oxo-3,4-dihydroquinazolin-8-yl)ethyl)amino)-N-(methylsulfonyl) picolinamide] |
| < 250 nM | 1000 to 5000 nM | – | – | Cc1cc([C@@H](C)Nc2ccc(Cl)nc2C(=O)NS(C)(=O)=O)c2nc(N3CCC[C@@H](c4cc[nH]n4)C3)n(C)c(=O)c2c1 (relative stereo) [Compound 218, 3-(((R)-1-(2-((R*)-3-(1H-pyrazol-3-yl)piperidin-1-yl)-3,6-dimethyl-4-oxo-3,4-dihydroquinazolin-8-yl)ethyl)amino)-6-chloro-N-(methylsulfonyl) picolinamide] |
| < 250 nM | 1000 to 5000 nM | – | – | Cc1cc([C@@H](C)Nc2ccc(Cl)nc2C(=O)NS(C)(=O)=O)c2nc(N3CC[C@H](Oc4cc[nH]n4)C3)n(C)c(=O)c2c1 [Compound 362, 3-(((R)-1-(2-((S)-3-((1H-pyrazol-3-yl)oxy)pyrrolidin-1-yl)-3,6-dimethyl-4-oxo-3,4-dihydroquinazolin-8-yl)ethyl)amino)-6-chloro-N-(methylsulfonyl) picolinamide] |
